Where two headings read alike, the source gives them in different places.
Key:
[1] = in vivo; cited from earlier work
[2] = one randomized trial; cited from earlier work
[3] = tested on: P-gp1, ABCC1, cleaved Caspase 3; settings: tumor tissues
[4] = tested on: human colon carcinoma HCT-116; assay: Tumor cell viability, MTT assay, HCT-116; assay type: cell-based; settings: read-out: IC50 cytotoxicity of oxaliplatin
Protocol: (§1) Tumor cell viability was measured using an MTT assay.

[5] = tested on: intraepidermal nerve fibers, sciatic nerve small fibers, DRG neurons; assay: Histology and TEM of footpad, sciatic nerve and DRG of tumor bearing mice; assay type: in vivo, mouse
Source text: Intraepidermal nerve fibers (IENFs) are sensory nerves that innervate dermis and epidermis. […] Calcitonin gene-related peptide (CGRP) DRG neurons are primary sensory neurons encoding heat and cold perception.

DRG neurons = assay: Axonal growth of DRG neurons in microfluidic device
Protocol: Primary rat DRG neurons were cultured in a microfluidic device that separates distal axons within the axonal compartment from their parent cell bodies within the cell body compartment as shown in FIG. 1 panel A. During 24 h culture, the neurons extended their axons to pass through a 450 nm long microgrooves, leading to only distal axons to grow into the axonal compartment (FIG. 1A). Oxaliplatin at various doses was applied into the axonal compartment (FIG. 1B).

[6] = tested on: miR-15b, miR-26a, miR-125b; settings: tumor tissues
[7] = tested on: human ovarian carcinoma OVCAR3; assay: Tumor cell viability, MTT assay, OVCAR3; assay type: cell-based; settings: read-out: IC50 cytotoxicity of oxaliplatin
Protocol: as §1

[8] = double immunofluorescent analysis

For Cc1c(C)c2c(c(C)c1O)CC[C@@](C)(CCC[C@H](C)CCC[C@H](C)CCCC(C)C)O2 [α-tocopherol], the “antineuropathic effect on oxaliplatin-induced behavioral alterations” value [1] is listed as “about 50%”.
For CNCCC=C1c2ccccc2CCc2ccccc21 [nortriptyline], the “therapy of CIPN symptoms” value [2] is given as “ineffective”.
For O=C1[O][Pt]2([NH][C@@H]3CCCC[C@H]3[NH]2)[O]C1=O [Oxaliplatin], the “protein level of ABCC1” value [3] was “increased”, the “protein level of P-gp1” value [3] was “increased” and the IC50 ([4]; HCT-116, with CEC derived exosomes (3×10^2 exosomes)) was 6.9 ± 1 µM. The IC50 ([4]; HCT-116, without CEC derived exosomes) was 16.1 ± 2.1 µM, the “IEFN density assayed by the number of PGP9.5 positive fibers” value ([5]; dermal tissues of tumor bearing mice) was “significantly reduced” and the “diameters of CGRP positive DRG neurons” value [5, 8] was “selectively reduced”. For the same compound, the “diameters of NF200 positive DRG neurons” value [5, 8] was “reduced diameters of CGRP, but not NF200 positive neurons”, the axonal growth inhibited (DRG neurons; oxaliplatin 3.6 nM (reduced concentration, IRF of 2.5)) was 27% and the axonal growth suppressed (DRG neurons; oxaliplatin 9.1 nM (regular dose)) was 50%. The IC50 (DRG neurons; read-out: Half Maximal Inhibitory Concentration, IC50, growth of axons, oxaliplatin applied into the axonal compartment, 24 h) was 0.0091 µM, the miR-15b level [6] was “significantly reduced” and the miR-26a level [6] was “significantly reduced”. It also gave an IC50 ([7]; OVCAR3, with CEC derived exosomes (3×10^2 exosomes)) of 2.3 ± 0.1 µM and an IC50 ([7]; OVCAR3, without CEC derived exosomes) of 6.5 ± 1.1 µM.
